We go through one compound from US20220062262A1, “GSNO REDUCTASE INHIBITOR AS AN ADJUNCT THERAPY WITH REMOTE ISCHEMIC CONDITIONING AND THROMBOLYTIC REPERFUSION THERAPIES IN STROKE” (KING ABDULAZIZ UNIVERSITY, priority 2020, published 2022).

The test system of assay [1] is iNOS, iCAM-1, IL-1β, IL-6 expression. In words: Brain inflammatory gene expression (RT-PCR) after tMCAo in STZ-induced diabetic mice. The assay is classed as in vivo. How it is done:
Mice were immediately sacrificed after PbtO2 measurement and brain tissue samples were analyzed for inflammatory gene expression (N=6/gp). RT-PCR primers shown in Table 1 were used to measure changes in expression of iNOS (FIG. 11A), iCAM-1 (FIG. 11B), IL-1(3 (FIG. 11C) and IL-6 (FIG. 11D). The result for each inflammatory gene was normalized to expression of β-actin and expressed as a fold change.

Assay [2] relates to PT-stroke (thrombotic occlusion of distal MCA trunk). In words: Photothrombotic (PT) model of stroke in aged mice, infarct volume by TTC staining. The assay is classed as in vivo. How it is done:
Aged mice (16 ±1-mo) were subjected to PT-stroke via a novel lateral side surgical approach without craniotomy resulting in the thrombotic occlusion of distal main trunk of MCA. For the purpose, mice were anesthetized with isofluorane, prepared for surgery, and rose Bengal dye (50 mg/kgbwt in 200 uL of 1× sterile PBS) was intravenously (IV) infused. Mice were immediately put on a robotic stereotaxic frame, the head was rotated to face right side up, and the skull was exposed. The distal trunk of MCA was visualized underneath the skull bone (without craniotomy) using a 532 nm laser source (8-mm beam diameter; 4.5 mW) integrated to an ID8-iris (ThorLabs, NJ, USA). The MCA region above the zygomatic arc was exposed with the laser for 20-min from a distance of ˜2-3-mm. Following 20-min laser exposure, thrombotic occlusion of the distal trunk of MCA was confirmed using laser doppler flowmeter showing >60% drop in CBF and finally the lateral side skin wound was closed. All mice under C57/B6 background were bred, housed, used and related experimental procedures were performed in accordance with the approved protocol of Institutional Animal Care and Use Committees (IACUCs) of St. Joseph's Hospital and Medical Center (SJHMC), and Augusta University, Augusta, Ga. Effect of stroke on GSNOR expression/activity was first determined in a clinically relevant partially-humanized TE-stroke, embolic middle cerebral artery occlusion (eMCAo) model in aged (16±1-mo-old) male mice. Next, an effective dose-finding study of GRI therapy (stroke injury size) was performed in aged (16±1-mo-old) male mice in a photothrombotic (PT) model of stroke with the reduction in infarct volume as the primary outcome. The safety and benefits of the best dose of GRI therapy in reducing infarct volume as the primary outcome was also confirmed in reproductively senescent aged (16±1-mo-old) female mice subjected to PT-stroke. To test the benefits of GRI therapy during permanent ischemia, GRI was also tested in adult (14±1-weeks) mice of both sexes subjected to permanent model of middle cerebral artery ligation (pMCAL). All females were ovariectomized at the age of 12-weeks, i.e., 2-weeks prior to stroke surgery. A 2×2 factorial design was adopted [2 Sexes (MALE vs. FEMALE)×2 GRI (NO vs. YES)] such that all 4 groups of both sexes were subjected to pMCAL followed by randomization into two different treatment cohorts: GRI therapy or equal volume of Vehicle treatment. All mice were tested for behavioral outcome on a narrow beam test, relative CBF measurement using laser speckle contrast imaging (LSCI) and infarct volume size. […] Outcome measures such as brain tissue oxygenation (PbtO2), acute inflammatory genes response, neurological deficit, edema as percent (%) swelling and infarct volumes were assessed. […]

With `Cc1cc(C(N)=O)ccc1-n1c(CCC(=O)O)ccc1-c1ccc(-n2ccnc2)cc1` [GRI therapy, N6022], the “inflammatory gene expression in brain (fold change, normalized to β-actin)” value in assay [1] (GRI alone vs vehicle-treated stroke group, after PbtO2 measurement at 6 h post-reperfusion) was “showed a trend only to downregulate most inflammatory genes and were not significantly different from the vehicle-treated stroke group”; in assay [1] (GRI prior to RIC therapy vs RIC therapy alone), “significantly downregulated and prevented RIC-induced inflammatory responses”. In addition, the “stroke injury (infarct volume) vs vehicle” value in assay [2] (aged female mice, 2.5 mg/kg, P<0.05, N=10/gp) was “effective in reducing the stroke injury significantly”. Besides, the “neuroprotective effect (absolute infarct volume) across doses” value in assay [2] (aged male mice, 1, 2.5, 5.0 and 10 mg/kg IV 1 h after PT-stroke, N=8/gp) is on record as “dose-dependent neuroprotective effect”. In assay [2] (aged male mice, IV 1 h after PT-stroke), the “GRI dose from which the neuroprotective effect plateaus” value was above 2.5 mg/kg. In assay [2] (aged male mice, IV 1 h after PT-stroke, P<0.0001), the “infarct/injury progression vs vehicle (TTC)” value is “significantly protected against the stroke and prevented the infarct/injury progression”.
